Measurements as given in US20240389599A1, “Antimicrobial Material Comprising a Tetraalkylphosphonium Ionic Liquid and Metal Nanoparticles” (University of Windsor, priority 2023, published 2024).

Columns and labels:
Type in all cases: cell-based
E. coli = assay: resazurin-based MIC/MBC screen of the TAPILs
Description: (§1) The MIC evaluation of the three TAPILs is shown with E. coli (a) and S. aureus (b) as the microorganism under study, using resazurin as an indicator of bacterial viability. The numbers on the right correspond to the TAPILs—i.e. “1” stands for TAPIL-1. The MIC and MBC values (c) are shown for the three TAPILs deployed against E. coli and S. aureus as representative microorganisms.
(§2) The three TAPILs were screened against E. coli and S. aureus according to standard procedures (FIG. 2). The bacteria were selected as they are the representative strains (gram negative and positive, respectively) used for European Union regulations in the evaluation of disinfectants. A standard resazurin-based assay was employed: A blue well indicates non-viable bacteria, while a pink one indicates bacterial viability. The MIC and the MBC values are summarized.

[1] = MIC/MBC of TAPIL-2 monitored upon ambient storage open to the atmosphere; conditions: 3 weeks ambient storage open to the atmosphere
Description: The presence of one longer alkyl chain on the central phosphorus is believed to be preferred for anti-microbial activity since symmetrical TAPILs with four identical alkyl substituents around the phosphorus atom are likely to interact less strongly with the cell membrane to induce cell death. The MIC/MBC values of TAPIL-2 were monitored over a period of 3 weeks upon ambient storage open to the atmosphere. No change in its antimicrobial activity was detected.

S. aureus = assay: resazurin-based MIC/MBC screen of the TAPILs; conditions: resazurin assay
Description: as §1, §2

**Q.** With `CCCCCCCC[P+](CCCCCC)(CCCCCC)CCCCCC.[Cl-]` [TAPIL-2] as the compound, how does the “Minimum Bactericidal Concentration (MBC)” value (E. coli) read?
**A.** < 65 µg/mL

**Q.** What about the “change in antimicrobial activity (MIC/MBC values)” value [1] of the same compound?
**A.** No change

**Q.** With `CCCCCCCCCCCCCC[P+](CCCCCC)(CCCCCC)CCCCCC.[Cl-]` [TAPIL-1] as the compound, how does the “antibacterial properties (in words)” value (E. coli; resazurin assay) read?
**A.** bacteriostatic properties at intermediate concentrations

**Q.** And the “antibacterial properties (in words)” value (S. aureus)?
**A.** bacteriostatic properties at intermediate concentrations

**Q.** With `CCCCCCCCCCCCCC[P+](CCCCCC)(CCCCCC)CCCCCC.O=S(=O)([N-]S(=O)(=O)C(F)(F)F)C(F)(F)F` [TAPIL-3] as the compound, how does the “concentration up to which no anti-bacterial effects are shown (MIC/MBC)” value (E. coli; resazurin assay) read?
**A.** > 2000 µg/mL

**Q.** What about the “concentration up to which no anti-bacterial effects are shown (MIC/MBC)” value (S. aureus) of the same compound?
**A.** > 2000 µg/mL
